# Measured values from the supplement of paper PMC10307832.
# Compound: COc1cc(-c2nn([C@H]3CC[C@H](N4CCN(C(C)=O)CC4)CC3)c3ncnc(N)c23)ccc1NC(=O)c1cc2ccccc2n1C + Cc1nc(Nc2ncc(C(=O)Nc3c(C)cccc3Cl)s2)cc(N2CCN(CCO)CC2)n1 [Dasatinib] (partner 0.075 µM)
# Test: relative viability (nuclei count vs DMSO), 5 days (fraction); higher = more cells survive
# Details: first compound 0.0128 µM
# Outline: (§1)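 Relative viability is defined as nuclei in treated wells over nuclei in vehicle wells. Duplicate plates were run and medians reported. Lung cancer cell lines in 1536-well plates were dosed by pin tool one day after seeding, with one drug or with a fixed anchor-drug dose plus five library-drug doses (not always all listed) in √10 steps, and nuclei were counted after 5 days.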
row,Cell Line,relative viability
1,NCI-H2342,0.312
2,NCI-H1623,0.526
3,NCI-H727,0.322
4,NCI-H1650,0.265
5,NCI-H1993,0.5
6,SW 1573,0.496
7,NCI-H838,0.304
8,LCLC-103H,0.538
9,NCI-H520,0.211
10,NCI-H2126,0.635
11,EMC-BAC-2,0.309
12,NCI-H2085,0.237
13,HCC-366,0.711
14,NCI-H1666,0.766
15,NCI-H596,0.564
16,LK-2,0.312

row,Cell Line,relative viability
1,NCI-H2087,1.11
2,SK-MES-1,0.44
3,H3255,0.345
4,COR-L23,0.503
5,COR-L 105,0.323
6,NCI-H2170,0.554
7,NCI-H522,0.794
8,SW 900,0.616
9,NCI-H1395,0.414
10,NCI-H1792,0.505
11,NCI-H1793,0.392
12,NCI-H1563,0.481
13,NCI-H1944,0.221
14,ABC-1,0.613
15,NCI-H358,0.188

# Same assay, conditions: first compound 0.04048 µM
row,Cell Line,relative viability
1,NCI-H2342,0.309
2,NCI-H1623,0.497
3,NCI-H1650,0.304
4,NCI-H1993,0.499
5,SW 1573,0.743
6,NCI-H838,0.261
7,LCLC-103H,0.472
8,NCI-H520,0.273
9,NCI-H2126,0.609
10,EMC-BAC-2,0.391
11,NCI-H2085,0.246
12,HCC-366,0.517
13,NCI-H1666,0.807
14,NCI-H596,0.73
15,LK-2,0.264
16,SK-MES-1,0.34
17,H3255,0.313
18,COR-L23,0.529
19,COR-L 105,0.448
20,NCI-H2170,0.494
21,NCI-H522,0.843
22,SW 900,0.707
23,NCI-H1395,0.464
24,NCI-H1792,0.731
25,NCI-H1793,0.35
26,NCI-H1563,0.484
27,NCI-H1944,0.203
28,ABC-1,0.505
29,NCI-H358,0.138

# Same assay, conditions: first compound 0.128 µM
row,Cell Line,relative viability
1,NCI-H2342,0.335
2,NCI-H1623,0.557
3,NCI-H727,0.296
4,NCI-H1650,0.32
5,NCI-H1993,0.428
6,SW 1573,0.627
7,NCI-H838,0.276
8,LCLC-103H,0.41
9,NCI-H520,0.236
10,NCI-H2126,0.626
11,EMC-BAC-2,0.244
12,NCI-H2085,0.249
13,HCC-366,0.667
14,NCI-H1666,0.802
15,NCI-H596,0.573
16,LK-2,0.326

row,Cell Line,relative viability
1,NCI-H2087,0.733
2,SK-MES-1,0.378
3,H3255,0.434
4,COR-L23,0.462
5,COR-L 105,0.287
6,NCI-H2170,0.559
7,NCI-H522,0.809
8,SW 900,0.487
9,NCI-H1395,0.465
10,NCI-H1792,0.749
11,NCI-H1793,0.401
12,NCI-H1563,0.532
13,NCI-H1944,0.224
14,ABC-1,0.542
15,NCI-H358,0.151

# Same assay, conditions: first compound 1.28 µM
row,Cell Line,relative viability
1,NCI-H2342,0.323
2,NCI-H1623,0.572
3,NCI-H727,0.381
4,NCI-H1650,0.29
5,NCI-H1993,0.599
6,SW 1573,0.612
7,NCI-H838,0.342
8,LCLC-103H,0.449
9,NCI-H520,0.307
10,NCI-H2126,0.506
11,EMC-BAC-2,0.481
12,NCI-H2085,0.219
13,HCC-366,0.607
14,NCI-H1666,0.756
15,NCI-H596,0.559
16,LK-2,0.417

row,Cell Line,relative viability
1,NCI-H2087,0.857
2,SK-MES-1,0.384
3,H3255,0.307
4,COR-L23,0.665
5,COR-L 105,0.362
6,NCI-H2170,0.592
7,NCI-H522,0.897
8,SW 900,0.578
9,NCI-H1395,0.449
10,NCI-H1792,0.645
11,NCI-H1793,0.346
12,NCI-H1563,0.488
13,NCI-H1944,0.206
14,ABC-1,0.688
15,NCI-H358,0.163

# Compound: CO[C@@H]1[C@H](N(C)C(=O)c2ccccc2)C[C@H]2O[C@]1(C)n1c3ccccc3c3c4c(c5c6ccccc6n2c5c31)C(=O)NC4 [Midostaurin] + Nc1nc2[nH]cc(CCc3ccc(C(=O)N[C@@H](CCC(=O)O)C(=O)O)cc3)c2c(=O)[nH]1 [Pemetrexed] (partner 0.2 µM)
# Test: as above
# Details: first compound 0.01 µM
# Outline: as §1
row,Cell Line,relative viability
1,NCI-H2342,0.785
2,NCI-H1650,0.315
3,NCI-H1993,0.627
4,SW 1573,0.843
5,NCI-H838,0.238
6,LCLC-103H,0.464
7,NCI-H520,0.662
8,NCI-H2126,0.672
9,EMC-BAC-2,0.407
10,NCI-H2085,0.971
11,HCC-366,0.156
12,NCI-H1666,0.876
13,NCI-H596,0.528
14,LK-2,0.265
15,NCI-H2087,0.701
16,NCI-H1648,0.671
17,SK-MES-1,0.856
18,H3255,0.571
19,COR-L23,0.195
20,COR-L 105,1.15
21,NCI-H2170,0.297
22,HCC-44,0.604
23,NCI-H522,1.19
24,SW 900,0.468
25,NCI-H1395,0.791
26,NCI-H1792,0.761
27,NCI-H1793,0.926
